Holding throughout (assay type): functional
What all share (parameters): scale not given: the % may be the effect or the level left

Assay [1] relates to Mycobacterium tuberculosis. The assay is described as follows: Antitubercular activity against Mycobacterium tuberculosis H37Rv assessed as reduction in RLU at 100 ug/mL after 72 hrs by luciferase reporter phage assay. On the technique in general: Reporter assays use an easily measured gene product as a stand-in for the process of interest.
The test system of assay [2] is Mycobacterium tuberculosis. The assay is described as follows: Antitubercular activity against Mycobacterium tuberculosis H37Rv assessed as reduction in RLU at 500 ug/mL after 72 hrs by luciferase reporter phage assay.
Assay [3] concerns Mycobacterium tuberculosis. The assay is described as follows: Antitubercular activity against Mycobacterium tuberculosis H37Rv assessed as reduction in RLU at 0.5 ug/mL after 72 hrs by luciferase reporter phage assay.
The subject of assay [4] is Mycobacterium tuberculosis. The assay is described as follows: Antitubercular activity against Mycobacterium tuberculosis H37Rv assessed as reduction in RLU at 2 ug/mL after 72 hrs by luciferase reporter phage assay.

Regarding `N#Cc1c(-c2ccc(Cl)cc2)[nH]c(=S)[nH]c1=O`, the Activity was found to be 46.21% in assay [1] and 65.23% in assay [2].

Take `NNC(=O)c1ccncc1` [ISONIAZID]: in assay [3], the Activity came to 98.42%.

As for `CO[C@H]1/C=C/O[C@@]2(C)Oc3c(C)c(O)c4c(O)c(c(/C=N/N5CCN(C)CC5)c(O)c4c3C2=O)NC(=O)/C(C)=C\C=C\[C@H](C)[C@H](O)[C@@H](C)[C@@H](O)[C@@H](C)[C@H](OC(C)=O)[C@@H]1C` [RIFAMPIN], the Activity in assay [4] turned out to be 82.58%.

With `N#Cc1c(-c2cccc(Cl)c2)[nH]c(=O)[nH]c1=O`, the Activity in assay [1] is listed as 54.28%; in assay [2], 61.02%.

For `N#Cc1c(-c2ccc(F)cc2)[nH]c(=O)[nH]c1=O`, the figures for the Activity in assay [1] and in assay [2] were 46.49% and 44.2%, respectively.

Regarding `COc1ccc(-c2[nH]c(=O)[nH]c(=O)c2C#N)cc1O`, the values for the Activity in assay [1] and in assay [2] were 33.4% and 48.72%, respectively.

Take `N#Cc1c(-c2ccc(Br)cc2)[nH]c(=S)[nH]c1=O`: the Activity in assay [1] is 75.73%; in assay [2] it was 82.04%.
